According to publication PMC10093841 (International Journal of Molecular Sciences, 2023):
“Also recorded” adds a separate entry of the source. Where two headings read alike, the source gives them in different places.

Assays:
[1] = target: T1, butyrylcholinesterase (BChE) from equine serum (Equus caballus, UniProt P81908); assay: biochemical
T1 construct: purchased Sigma-Aldrich; host or cells: equine serum
Method: (§1) Anti-GAPDH antibody and enhanced chemiluminescence reagents were purchased from Santa Cruz Biotechnology (Santa Cruz, CA, USA); horseradish peroxidase-conjugated secondary antibody was purchased from Amersham Biosciences (Pittsburgh, PA, USA). Nitrocellulose was purchased from Biorad (Hercules, CA, USA).
(§2) The cholinesterase inhibition was evaluated by Ellman’s colorimetric method with some modifications. Briefly, in a total volume of 1 mL, 415 µL of Tris-HCl buffer 0.1 M (pH 8), 10 µL of a buffer solution of carvacrol or p-cymene (in methanol) at different concentrations (100, 10, 1 and 0.1 µg/mL), and 25 µL of a solution containing 0.28 U/mL of AChE (or BChE) were incubated for 15 min at 37 °C. […] The absorbance was measured at 405 nm in a spectrophotometer (Thermo Scientific Multiskan GO, Monza, Italy).
(§3) The percent inhibition of enzyme activity for acetylcholinesterase, butyrylcholinesterase, and α-amylase was calculated by comparison with the absorbance of the control without sample, following the formula: % = [(A0 − A1)/A0] × 100(1) where A0 is the absorbance of the control without the sample and A1 is the absorbance of the sample.

[2] = target: T2, acetylcholinesterase (AChE) type VI-S from Electrophorus electricus (Electrophorus electricus, UniProt O42275); assay: Cholinesterase inhibition, Ellman's colorimetric method (AChE); format: biochemical
T2 construct: purchased Sigma-Aldrich
T2 sequence (O42275 24-633): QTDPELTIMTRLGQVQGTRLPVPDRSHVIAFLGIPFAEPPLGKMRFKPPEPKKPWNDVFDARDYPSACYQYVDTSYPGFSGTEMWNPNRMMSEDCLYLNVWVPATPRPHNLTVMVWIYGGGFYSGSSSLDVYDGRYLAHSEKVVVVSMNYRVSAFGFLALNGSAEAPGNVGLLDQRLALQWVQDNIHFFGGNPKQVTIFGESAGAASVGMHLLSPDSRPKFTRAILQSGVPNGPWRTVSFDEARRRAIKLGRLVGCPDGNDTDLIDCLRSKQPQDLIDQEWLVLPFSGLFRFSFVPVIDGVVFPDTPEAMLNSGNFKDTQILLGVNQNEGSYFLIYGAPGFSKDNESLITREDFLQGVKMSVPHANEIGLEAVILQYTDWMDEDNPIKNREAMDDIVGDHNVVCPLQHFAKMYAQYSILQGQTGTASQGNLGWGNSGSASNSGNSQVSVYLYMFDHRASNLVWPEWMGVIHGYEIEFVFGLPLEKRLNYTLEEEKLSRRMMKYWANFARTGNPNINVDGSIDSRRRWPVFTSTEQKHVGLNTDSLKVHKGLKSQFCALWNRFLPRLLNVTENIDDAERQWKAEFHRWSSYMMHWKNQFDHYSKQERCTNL
Method: as §1, §2, §3

[3] = target: T3, porcine pancreatic amylase (Sus scrofa, UniProt P00690); assay: biochemical
T3 construct: purchased Sigma-Aldrich
T3 sequence (P00690 16-511): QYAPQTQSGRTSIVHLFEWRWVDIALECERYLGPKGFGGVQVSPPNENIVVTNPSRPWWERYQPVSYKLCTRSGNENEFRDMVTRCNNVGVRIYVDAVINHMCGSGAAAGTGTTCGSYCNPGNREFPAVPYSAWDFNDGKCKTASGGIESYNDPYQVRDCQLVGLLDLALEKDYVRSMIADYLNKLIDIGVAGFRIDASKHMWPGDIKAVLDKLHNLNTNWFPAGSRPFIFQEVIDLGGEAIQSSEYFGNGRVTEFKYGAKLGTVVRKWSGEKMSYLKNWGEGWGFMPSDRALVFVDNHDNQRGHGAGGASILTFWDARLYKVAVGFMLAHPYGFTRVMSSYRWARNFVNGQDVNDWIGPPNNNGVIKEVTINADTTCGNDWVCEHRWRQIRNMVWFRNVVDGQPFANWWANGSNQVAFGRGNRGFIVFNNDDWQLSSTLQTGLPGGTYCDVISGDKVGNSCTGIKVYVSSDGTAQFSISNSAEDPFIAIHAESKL
Method: as §1, §3

[4] = Hydrogen peroxide scavenging assay (1,10-phenanthroline); conditions: cell-free, concentration range 0–1000 μg/mL
Method: Briefly, 0.25 mL of ferrous ammonium sulfate (1 mM) solution was mixed with 1.5 mL of different concentrations (from 6 to 500 μg/mL) of carvacrol, p-cymene; acid gallic was used as a positive control. Then, 62.5 µL of H2O2 (5 mM) was added and the mixture was incubated at room temperature in the dark for 5 min. Then, 1.5 mL of 1,10-phenanthroline (1 mM) was added to each tube, mixed, and incubated for 10 min at room temperature. Finally, the absorbance was measured at 510 nm through a spectrophotometer (Thermo Scientific Multiskan GO, Monza, Italy).

[5] = tested on: AChE; conditions: carvacrol stronger than its isomer thymol; cited from earlier work
[6] = tested on: caspase-3 in SH-SY5Y cells; assay: Caspase-3 expression (Western blot) in H2O2-induced stress; format: cell-based, Human; conditions: pretreatment 50 μg/mL for 22 h, then H2O2 100 or 200 μM for 2 h
Method: To investigate the neuroprotective effects of carvacrol and p-cymene on H2O2-induced stress in SH-SY5Y cells, the cells were assigned to a total of nine groups: Group 1: control (untreated cells); Groups 2 and 3, cells treated with H2O2 alone, at 100 and 200 μM for two h; Groups 4–5: cells treated with carvacrol or p-cymene MNTD (50 µg/mL) Groups 6–9: cells pretreated with carvacrol or p-cymene MNTD for 22 h and then exposed to H2O2 at 100 and 200 μM for another two h. After the cell lysis, we determined the caspase-3 activity. For caspase-3 activity analysis, the SH-SY5Y cells (1 × 10^4) were seeded in separate wells in 12-well plates (Corning, Inc., Corning, NY, USA). The cells were allowed to reach 70–80% confluency before the treatment groups were initiated. The cells were collected after 24 h and lysed using the Laemmli buffer to extract total proteins. For Western blot analysis, an aliquot of total protein was run on 10% SDS-PAGE gel and transferred to nitrocellulose. […] Immunoreactivity was detected through a sequential incubation with horseradish peroxidase-conjugated secondary antibody and enhanced chemiluminescence reagents. Each band density was measured using ImageJ software (WS Rasband, Image J, NIH, Bethesda, MD, USA).

[7] = tested on: BChE; parameters: method as in doi:10.1007/s10068-015-0093-0; conditions: at a concentration of 2 mg/mL; cited from earlier work

T1 sequence (P81908 whole entry): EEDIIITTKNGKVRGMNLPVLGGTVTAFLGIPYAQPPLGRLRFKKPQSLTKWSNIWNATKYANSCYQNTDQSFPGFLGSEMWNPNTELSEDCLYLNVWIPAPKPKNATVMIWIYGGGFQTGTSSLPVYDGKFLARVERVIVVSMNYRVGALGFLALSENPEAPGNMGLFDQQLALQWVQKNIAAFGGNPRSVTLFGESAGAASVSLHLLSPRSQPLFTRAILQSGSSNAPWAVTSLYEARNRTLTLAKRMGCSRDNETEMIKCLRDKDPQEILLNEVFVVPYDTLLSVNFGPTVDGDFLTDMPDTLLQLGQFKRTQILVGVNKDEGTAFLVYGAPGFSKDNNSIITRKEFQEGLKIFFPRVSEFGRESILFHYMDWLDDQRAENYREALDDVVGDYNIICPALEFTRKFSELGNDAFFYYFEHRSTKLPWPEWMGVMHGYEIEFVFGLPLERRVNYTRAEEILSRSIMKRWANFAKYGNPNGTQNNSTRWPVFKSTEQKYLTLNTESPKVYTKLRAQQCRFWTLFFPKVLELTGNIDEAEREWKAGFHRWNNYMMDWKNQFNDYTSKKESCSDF

| SMILES | IC50 [1] [µM] | IC50 [2] [µM] | IC50 [3] [µM] | IC50 ([1]; concentration required to reduce the enzymatic activity by 50%, read-out: IC50 BChE (converted)) [µM] | H2O2 scavenging activity [4] | inhibitory effect relative to thymol [5] [times] | caspase-3 expression [6] | IC50 ([3]; read-out: IC50 α-Amylase (converted)) [µM] | inhibition of BChE activity [7] [%] |
| --- | --- | --- | --- | --- | --- | --- | --- | --- | --- |
| Cc1ccc(C(C)C)cc1 [p-Cymene] | 10800 | 113 | 1600 |  |  |  |  |  |  |
| Cc1ccc(C(C)C)cc1O [Carvacrol] |  | 25.3 |  | 218 | more active than p-cymene | 10 | reduced; also recorded: caspase-3 was inhibited | 1140 |  |
| Cc1ccc(C(C)C)c(O)c1 [Thymol] |  |  |  |  |  |  |  |  | 42.2 |
